From PMC6225228, “Design, Synthesis and Evaluation of N-pyrazinylbenzamides as Potential Antimycobacterial Agents” (Molecules : A Journal of Synthetic Chemistry and Natural …, 2018)
≈ marks a conversion by molar mass, not a printed value. Where two headings read alike, the source gives them in different places. Marks after values point to notes of the source that are not given here.

Tests used:
[1] = tested on: Mycobacterium tuberculosis H37Rv (Mtb); conditions: cited from earlier work
[2] = tested on: Mycobacterium tuberculosis H37Rv (Mtb); conditions: cited from earlier work; remark: listed apart in the source
[3] = tested on: Mycobacterium tuberculosis H37Rv CNCTC My 331/88 (ATCC 27294); assay: Antimycobacterial microdilution MABA, M. tuberculosis; type: cell-based; conditions: for MIC: Mycobacterium tuberculosis
Candida krusei E28 = assay: Antifungal microdilution broth, CK; type: cell-based; conditions: Pichia kudriavzevii, read-out: MIC CK
Candida tropicalis 156 = assay: Antifungal microdilution broth, CT; type: cell-based; conditions: read-out: MIC CT
[4] = tested on: Staphylococcus epidermidis H 6966/08; assay: Antibacterial microdilution broth, SE; type: cell-based; conditions: read-out: MIC SE
[5] = tested on: Aspergillus fumigatus 231; assay: Antifungal microdilution broth, AF; type: cell-based; conditions: read-out: MIC AF
[6] = tested on: M. kansasii CNCTC My 235/80 (ATCC 12478); assay: Antimycobacterial microdilution MABA, M. kansasii; type: cell-based, Mycobacterium kansasii; conditions: for MIC: Mycobacterium kansasii
[7] = tested on: Lichtheimia corymbifera 272; assay: Antifungal microdilution broth, LC; type: cell-based; conditions: read-out: MIC LC
[8] = tested on: Staphylococcus aureus CCM 4516/08; assay: Antibacterial microdilution broth, SA; type: cell-based; conditions: Staphylococcus aureus
Trichosporon asahii 1188 = assay: Antifungal microdilution broth, TA; type: cell-based; conditions: read-out: MIC TA
[9] = tested on: Pseudomonas aeruginosa CCM 1961; assay: Antibacterial microdilution broth, PA; type: cell-based; conditions: Pseudomonas aeruginosa, read-out: MIC PA
[10] = tested on: Escherichia coli CCM 4517; assay: Antibacterial microdilution broth, EC; type: cell-based; conditions: Escherichia coli, read-out: MIC EC
[11] = human, HepG2 cells
[12] = tested on: Staphylococcus aureus H 5996/08 methicillin resistant; assay: microbe, parasite or virus in culture; type: cell-based; conditions: for MIC: Staphylococcus aureus, MRSA, read-out: MIC MRSA
[13] = tested on: Candida albicans ATCC 44859; assay: Antifungal microdilution broth, CA; type: cell-based; conditions: Candida albicans, read-out: MIC CA
Candida glabrata 20/I = assay: Antifungal microdilution broth, CG; type: cell-based; conditions: Nakaseomyces glabratus, 20/I, read-out: MIC CG
[14] = tested on: M. avium ssp. avium CNCTC My 80/72 (ATCC 15769); assay: Antimycobacterial microdilution MABA, M. avium; type: cell-based, Mycobacterium avium; conditions: for MIC: Mycobacterium avium
[15] = tested on: Mycobacterium smegmatis CCM 4622 (ATCC 607); assay: Antimycobacterial microdilution, M. smegmatis; type: cell-based; conditions: Mycolicibacterium smegmatis, read-out: M. smeg. ATCC 607 MIC
[16] = tested on: Trichophyton interdigitale 445; assay: Antifungal microdilution broth, TI; type: cell-based; conditions: read-out: MIC TI
[17] = tested on: Enterococcus sp. J 14365/08; assay: Antibacterial microdilution broth, EF; type: cell-based; conditions: Enterococcus, read-out: MIC EF
[18] = Middlebrook 7H9, pH = 6.6, MABA
[19] = Middlebrook 7H9 with OADC growth supplement, pH = 6.6, MABA
[20] = read-out: Mtb H37Rv ATCC 27294 MIC, Middlebrook 7H9 with OADC growth supplement, pH = 6.6, MABA
[21] = Staphylococcus epidermidis, H6966/08, 24 h
[22] = Staphylococcus epidermidis, H6966/08, 48 h
[23] = Aspergillus fumigatus, 231, 24 h
[24] = Aspergillus fumigatus, 231, 48 h
[25] = Middlebrook 7H9 with OADC, pH 6.6, MABA
[26] = ATCC12478, pH 6.6, read-out: M. kans. ATCC 12478 MIC, Middlebrook 7H9 with OADC, pH 6.6, MABA
[27] = Lichtheimia corymbifera, 272, 24 h
[28] = Lichtheimia corymbifera, 272, 48 h
[29] = CCM4516, 24 h, read-out: MIC SA, 24 h
[30] = CCM4516, 48 h, read-out: MIC SA, 48 h
[31] = Trichosporon asahii, 1188, 24 h
[32] = Trichosporon asahii, 1188, 48 h
[33] = ATCC15769, pH 6.6, read-out: M. avium ATCC 15769 MIC
[34] = Trichophyton interdigitale, 445, 72 h
[35] = Trichophyton interdigitale, 445, 120 h

In the case of `O=C(Nc1ccccc1)c1cncc(Cl)n1` [Amide R1=6-Cl R2=H], the “Amides MIC” value ([1]; Šula's semisynthetic medium, pH = 5.6, MABA) is given as 25 ^d [34] μg/mL and the “Amides Inhibition (%) at 6.25 μg/mL (TAACF)” value (“Amides Inhibition (%)” below) [2] is given as 32 [31] %.
In the case of `O=C(Nc1ccccc1Cl)c1cnccn1` [Amide R1=H R2=2-Cl], the “Amides MIC” value ([1]; Šula's semisynthetic medium, pH = 5.6, growth indicated by turbidity) is listed as 50 ^c [19] μg/mL.
For `COc1ccccc1NC(=O)c1cnccn1` [Amide R1=H R2=2-OCH3], the “Amides MIC” value [1, 18] is listed as >100 ^b [27] μg/mL.
In the case of `O=C(Nc1cccc(C(F)(F)F)c1)c1cnccn1` [Amide R1=H R2=3-CF3], the “Amides MIC” value [1, 18] is listed as 50 µg/mL, the “Amides MIC” value ([1]; conditions not footnoted) is listed as 6.25 µg/mL and the “Amides Inhibition (%)” value [2] is listed as 99 [32] %.
For `O=C(Nc1cccc(Cl)c1)c1cnccn1` [Amide R1=H R2=3-Cl], the “Amides MIC” value [1, 18] is given as >100 ^b [27] μg/mL and the “Amides Inhibition (%)” value [2] is given as 14 [33] %.
For `COc1cccc(NC(=O)c2cnccn2)c1` [Amide R1=H R2=3-OCH3], the “Amides MIC” value [1, 18] is given as >100 ^b [27] μg/mL.
For `Cc1ccc(NC(=O)c2cnccn2)cc1` [Amide R1=H R2=4-CH3], the “Amides MIC” value [1, 18] is listed as 100 ^b [27] μg/mL and the “Amides Inhibition (%)” value [2] is listed as 86 [32] %.
In the case of `O=C(Nc1ccc(Cl)cc1)c1cnccn1` [Amide R1=H R2=4-Cl], the “Amides MIC” value [1, 18] is given as 50 ^b [27] μg/mL and the “Amides Inhibition (%)” value [2] is given as 4 [33] %.
For `COc1ccc(NC(=O)c2cnccn2)cc1` [Amide R1=H R2=4-OCH3], the “Amides MIC” value [1, 18] is listed as >100 ^b [27] μg/mL.
In the case of `O=C(Nc1ccccc1)c1cnccn1` [Amide R1=H R2=H], the “Amides MIC” value [1, 18] is listed as >100 ^b [27] μg/mL and the “Amides Inhibition (%)” value [2] is listed as 0 [31] %.
With `CC(=O)Oc1ccc(C(=O)Nc2cnc(Cl)cn2)cc1` [Compound 2d-Ac] the “Mtb H37Rv ATCC 27294 MIC” value [3, 19] was over 100 µg/mL, the MIC [3, 20] was over 100 µg/mL and the “Mtb MIC” value ([3]; molar concentration) was “inactive”. It also gave an MIC (Candida krusei E28; E28, 24 h) of over 125 µM, an MIC (Candida krusei E28; E28, 48 h) of over 125 µM and an MIC (Candida tropicalis 156; Candida tropicalis, 156, 24 h) of over 125 µM. For the same molecule, the MIC (Candida tropicalis 156; Candida tropicalis, 156, 48 h) was over 125 µM, the MIC ([4]; 24 h) was over 125 µM and the MIC ([4]; 48 h) was over 125 µM. It also gave an MIC [4, 21] of over 125 µM, an MIC [4, 22] of over 125 µM and an MIC [5, 23] of over 125 µM. For the same molecule, the MIC [5, 24] was over 125 µM, the “M. kans. ATCC 12478 MIC” value [6, 25] was over 100 µg/mL and the MIC [6, 26] was over 100 µg/mL. The melting point was 170.9 to 171.8 °C, the MIC [7, 27] was over 125 µM and the MIC [7, 28] was over 125 µM. For the same molecule, the MIC [8, 29] was 0.98 µM (≈ 0.286 µg/mL), the MIC [8, 30] was 0.98 µM (≈ 0.286 µg/mL) and the MIC (Trichosporon asahii 1188; [31]) was over 125 µM. The MIC (Trichosporon asahii 1188; [32]) was over 125 µM, the MIC ([9]; CCM1961, 72 h) was over 125 µM and the MIC ([9]; CCM1961, 120 h) was over 125 µM. It also gave an MIC ([10]; CCM4517, 24 h) of over 125 µM, an MIC ([10]; CCM4517, 48 h) of over 125 µM and an IC50 at 24 h [11] of over 500 µM. For the same molecule, the “MIC MRSA” value ([12]; 24 h) was over 125 µM, the “MIC MRSA” value ([12]; 48 h) was over 125 µM and the MIC ([12]; 24 h) was over 125 µM. The MIC ([12]; 48 h) was over 125 µM, the MIC ([13]; ATCC44859, 24 h) was over 125 µM and the MIC ([13]; ATCC44859, 48 h) was over 125 µM. For the same molecule, the MIC (Candida glabrata 20/I; 24 h) was over 125 µM, the MIC (Candida glabrata 20/I; 48 h) was over 125 µM and the “M. avium ATCC 15769 MIC” value [14, 25] was over 100 µg/mL. For the same molecule, the MIC [14, 33] was over 100 µg/mL, the MIC [15] was 250 µg/mL (≈ 857 µM) and the MIC [16, 34] was over 125 µM. The MIC [16, 35] was over 125 µM, the MIC ([17]; SP.J14365/08, 24 h) was over 125 µM and the MIC ([17]; SP.J14365/08, 48 h) was over 125 µM.
For `O=C(Nc1cncc(Cl)n1)c1cccc(Cl)c1` [Compound 3k], the “Mtb H37Rv ATCC 27294 MIC” value [3, 19] was over 100 µg/mL, the MIC [3, 20] was over 100 µg/mL and the MIC (Candida krusei E28; E28, 24 h) was over 125 µM. It also gave an MIC (Candida krusei E28; E28, 48 h) of over 125 µM, an MIC (Candida tropicalis 156; Candida tropicalis, 156, 24 h) of over 125 µM and an MIC (Candida tropicalis 156; Candida tropicalis, 156, 48 h) of over 125 µM. For the same molecule, the MIC [4, 21] was over 125 µM, the MIC [4, 22] was over 125 µM and the MIC [5, 23] was over 125 µM. The MIC [5, 24] was over 125 µM, the MIC [6, 26] was over 100 µg/mL and the melting point was 166 to 167.1 °C. For the same molecule, the MIC [7, 27] was over 125 µM, the MIC [7, 28] was over 125 µM and the MIC [8, 29] was over 125 µM. For the same molecule, the MIC [8, 30] was over 125 µM, the MIC (Trichosporon asahii 1188; [31]) was over 125 µM and the MIC (Trichosporon asahii 1188; [32]) was over 125 µM. For the same molecule, the MIC ([9]; CCM1961, 72 h) was over 125 µM, the MIC ([9]; CCM1961, 120 h) was over 125 µM and the MIC ([10]; CCM4517, 24 h) was over 125 µM. It also gave an MIC ([10]; CCM4517, 48 h) of over 125 µM, an MIC ([12]; 24 h) of over 125 µM and an MIC ([12]; 48 h) of over 125 µM. It also gave an MIC ([13]; ATCC44859, 24 h) of over 125 µM, an MIC ([13]; ATCC44859, 48 h) of over 125 µM and an MIC (Candida glabrata 20/I; 24 h) of over 125 µM. For the same molecule, the MIC (Candida glabrata 20/I; 48 h) was over 125 µM, the MIC [14, 33] was over 100 µg/mL and the MIC [15] was at least 500 µg/mL. For the same molecule, the MIC [16, 34] was over 125 µM, the MIC [16, 35] was over 125 µM and the MIC ([17]; SP.J14365/08, 24 h) was over 125 µM. It also gave an MIC ([17]; SP.J14365/08, 48 h) of over 125 µM.
For `O=C(Nc1cncc(Cl)n1)c1cccc(C(F)(F)F)c1` [Compound 3n, N-(6-chloropyrazin-2-yl)-3-(trifluoromethyl)benzamide], the MIC ([3]; Middlebrook 7H9 with OADC growth supplement, pH = 6.6, MABA, read-out: Mtb H37Rv ATCC 27294 MIC) was 25 µg/mL, the MIC ([3]; molar concentration, read-out: Mtb MIC) was 82.9 µM and the MIC ([6]; ATCC12478, Middlebrook 7H9 with OADC, pH 6.6, MABA, read-out: M. kans. ATCC 12478 MIC) was 25 µg/mL (≈ 82.9 µM). It also gave a melting point of 124.2 to 125 °C, an IC50 at 24 h [11] of over 250 µM and an MIC ([14]; ATCC15769, Middlebrook 7H9 with OADC, pH 6.6, MABA, read-out: M. avium ATCC 15769 MIC) of 50 µg/mL (≈ 166 µM). The MIC ([15]; Middlebrook 7H9 with OADC, resazurin) was 125 µg/mL (≈ 414 µM).
